Assays:
[1] = tested on: His-tagged WIPK protein; experiment: Immunoblot analysis of Ab-p44N against a panel of His-tagged MAP kinases; assay type: binding, tobacco; details: 0.2 μg/mL competitor peptide
Protocol: Antibody production and immunoblot analysis. The peptides p44N (MADANMGAGGGQFPDFPS; SEQ ID NO: 2) and p48N ([…]; SEQ ID NO: 3), which correspond respectively to the unique N-termini of the WIPK and the SIPK proteins, were synthesized and conjugated to keyhole limpet hemacyanin (KLH) carrier. Polyclonal antisera were raised in rabbits and purified by affinity column chromatography (Zymed Laboratory, South San Francisco, Calif.).
For immunoblot analysis, 20 μg of total protein per lane were separated on 10% SDS-polyacrylamide gels, and the proteins were transferred to nitrocellulose membranes (Schleicher & Schuell, Inc., Keene, N.H.) by semi-dry electroblotting. […]
The 44-kD kinase activated by TWV in encoded by WIPK. […] The specificity of the Ab-p44N was assessed by immunoblot analysis against a panel of different MAP kinases as described above for Ab-p48N.

[2] = tested on: SIPK; details: Zhang & Klessig, 1997; cited from earlier work
[3] = tested on: 48-kD SIPK; experiment: Phosphatase treatment of protein extracts, then in-gel kinase activity assay; assay type: biochemical, tobacco; details: okadaic acid 1 μM; Na3VO4 1 mM
Protocol: (§1) In-gel kinase activity assay. The in-gel kinase activity assay was performed as described previously (zhang & Klessig, 1997). The relative kinase activity were quantitated using a PhosphorImager (Molecular Dynamics Inc., Sunnyvale, Calif.) and normalized to the level present at the zero time point for the 48-kD kinase, which was given a value of 1.
(§2) Treatment of protein extracts with phosphatases. Protein extracts were prepared in the absence of phosphatase inhibitors from TMV-infected leaves at 8 hr after shifting plants from 32° C. to 22° C. or 48 hr after infection at 22° C. Samples containing 20 μg of protein were treated with either the serine/threonine-specific phosphatase, PP-2A1 (0.25 units in 30 μL; Upstate Biotechnology, Lake Placid, N.Y.), or the tyrosine-specific protein phosphatase, YOP (2 units in 30 μL; NEB), for 20 min at 30° C. in the presence or absence of a phosphatase inhibitor. The PP-2A1 inhibitor, okadaic acid, and YOP inhibitor, Na3VO4 were used at a concentration of 1 μM and 1 mM, respectively. After phosphatase treatment, kinase activity was detected by the in-gel kinase activity assay.

[4] = tested on: WIPK-encoded 44-kD kinase; experiment: as above; assay type: biochemical, tobacco; details: okadaic acid 1 μM; Na3VO4 1 mM
Protocol: as §1, §2

| Compound | Effect of competitor peptide on binding of Ab-p44N to His-tagged WIPK protein [1] | Activation of SIPK by treatment [2] | Effect of phosphatase inhibitor on inactivation of SIPK by PP-2A1 and YOP [3] | Effect of phosphatase inhibitor on inactivation of WIPK by PP-2A1 and YOP [4] |
| --- | --- | --- | --- | --- |
| MDGSGQQTDTMMSDAGAEQPPTAP [p48N, peptide corresponding to the unique N-terminus of SIPK] | not | – | – | – |
| O=C(O)c1ccccc1O [SA, salicylic acid] | – | activated | – | – |
| C=C1[C@@H](O)[C@@H]2O[C@]3(CC[C@H](/C=C/[C@@H](C)[C@@H]4CC(C)=C[C@@]5(O[C@H](C[C@@](C)(O)C(=O)O)CC[C@H]5O)O4)O3)CC[C@H]2O[C@@H]1[C@@H](O)C[C@H](C)[C@H]1O[C@@]2(CCCCO2)CC[C@H]1C [okadaic acid] | – | – | prevented | prevented |
| MADANMGAGGGQFPDFPS [p44N] | blocked binding | – | – | – |
| [Na+].[Na+].[Na+].[O]=[V]([O-])([O-])[O-] [vanadate, Na3VO4] | – | – | prevented | prevented |

From US6765128B1, “Method of using a pathogen-activatable map kinase to enhance disease resistance in plants” (priority 1998, dated 2004)
